# Experimental data as given in patent US9278086B2, “Combination therapy and uses thereof for treatment and prevention of parasitic infection and disease” (The Royal Institution for the Advancement of …, priority 2010, dated 2016).
# Assays:
# in vivo = assay: in vivo; set-up: species or system mice; settings: mouse
# Experimental: Cysteamine was detected in plasma by high performance liquid chromatography analysis with ultraviolet detection (Dias V C, et al. (1998) Clin Chem 44: 2199-2201). Briefly, blood was collected in EDTA/heparin-containing tubes, and plasma was obtained by centrifugation. Plasma thiols were reduced by treatment with Tris(2-carboxyethyl)phosphine (0.05M final concentration, 20 min. at 20° C.), and proteins were precipitated with tri-chloroacetic acid (TCA, 10% final concentration). Free thiols from the protein-free supernatant were derivatized using SBD-F ([…]), used at a final concentration of 0.2 mg/ml (1 hr at 60° C.) in 0.05 M borate buffer (pH 9.5). The mixture was then analyzed by HPLC: the mobile phase consisted of an aqueous solvent (0.1M acetic acid, 0.1 sodium acetate, pH 4.3) running on a Supelco™ LC-8 column, and elution of plasma analytes was with a 0-10% acetonitrile gradient. Detection of SBD-F derivatized analytes was by reading fluorescence at 515 nm (excitation at 385 nm). Cysteamine elution peaks were quantified (surface area), and plasma concentrations were calculated using a set of internal cysteamine standards processed at the same time. Area under the curve (AUCt0-tlast) was calculated using the trapezoid approximation method.
# To gain more insight into the anti-malarial effect of cysteamine (Cys) in vivo, the pharmacokinetic characteristics (plasma level) of Cys administered through the sub-cutaneous (s.c.) and intra-peritoneal (i.p) routes was compared. […] To determine which pharmacokinetic parameter (AUC vs. Cmax) is important for efficacy against Plasmodium, the i.p. and s.c. routes of injection were compared in a continuous treatment regimen, starting one day prior to infection (10^5 pRBC of P. chabaudi, i.v.) and continuing daily for 7 days. Parasitemia was monitored on thin blood smears at days 5, 6 and 7 following infection (FIG. 1B). Treatment of infected animals with 120 mg/kg of Cys administered either s.c. or i.p. caused a highly significant (p<0.01) 50% reduction in parasitemia at day 5 and 6, relative to saline injected controls.
# It was next determined whether Cys at equivalent dosing to that used in the clinical treatment of nephropathic cystinosis in humans has an effect on the course and severity of P. chabaudi infection in mice. In cystinosis patients, Cys is given orally as Cys bitartrate (Cystagon®). […] The efficacy of different regimens of 50 mg/kg Cys s.c. (number of injections, interval between injections) on replication of P. chabaudi in vivo was evaluated. P. chabaudi-infected mice were treated daily, starting at day −1 and continuing to day 10, with either 1×150 mg/kg, 3×50 mg/kg given at 2 hr intervals, 4×50 mg/kg given at 2 hr intervals or 3×50 mg/kg given at 1 hr intervals of Cys, and blood parasitemia was monitored at days 5, 6 and 7 (FIG. 2B).
# Plasmodium chabaudi [1] = assay: P. chabaudi infection (10^5 pRBC i.v.) in A/J mice, continuous daily cysteamine treatment, blood parasitemia; assay type: in vivo
# Experimental: A/J and C57BL/6 (B6) mice were purchased from the Jackson Laboratories (Bar Harbor, Me.) and were housed at McGill University according to the guidelines of the Canadian Council on Animal Care. An LDH virus-free isolate of P. chabaudi AS was maintained by weekly passage in A/J mice. […] Following infection, the percentage of pRBC was determined daily on thin blood smears stained with Dif-Quik™ (Dade Behring, Newark, Del.), as described (Fortin A, et al. (2001) Proc Natl Acad Sci USA 98: 10793-10798).
# Cysteamine hydrochloride (Sigma, Burlington ON) was prepared in PBS. […]
# To gain more insight into the anti-malarial effect of cysteamine (Cys) in vivo, the pharmacokinetic characteristics (plasma level) of Cys administered through the sub-cutaneous (s.c.) and intra-peritoneal (i.p) routes was compared. […] Parasitemia was monitored on thin blood smears at days 5, 6 and 7 following infection (FIG. 1B). […]
# It was next determined whether Cys at equivalent dosing to that used in the clinical treatment of nephropathic cystinosis in humans has an effect on the course and severity of P. chabaudi infection in mice. […] The efficacy of different regimens of 50 mg/kg Cys s.c. (number of injections, interval between injections) on replication of P. chabaudi in vivo was evaluated. […]
# Plasmodium chabaudi [2] = assay: Progression, resolution and survival of lethal P. chabaudi infection (10^6 pRBC i.v.) in A/J mice; assay type: in vivo; settings: Cys alone 60 mg/kg, days 0-3
# Experimental: A/J and C57BL/6 (B6) mice were purchased from the Jackson Laboratories (Bar Harbor, Me.) and were housed at McGill University according to the guidelines of the Canadian Council on Animal Care. An LDH virus-free isolate of P. chabaudi AS was maintained by weekly passage in A/J mice. Mice were infected intravenously into the tail vein (i.v.) with 10^6 or 10^7 pRBC suspended in pyrogen-free saline. Following infection, the percentage of pRBC was determined daily on thin blood smears stained with Dif-Quik™ (Dade Behring, Newark, Del.), as described (Fortin A, et al. (2001) Proc Natl Acad Sci USA 98: 10793-10798).
# Cysteamine hydrochloride (Sigma, Burlington ON) was prepared in PBS. Chloroquine hydrochloride, artesunate and dihydroartemisinin were provided by Dafra Pharmaceuticals; chloroquine was prepared in PBS, artesunate and DHA were prepared in 5% sodium bicarbonate and diluted in water to appropriate concentrations. All solutions were prepared fresh daily, filter sterilized and injections were performed intra-peritoneally (i.p) or subcutaneously (s.c.) for 4 days or according to treatment regimen. Mice were weighed prior to treatment to determine appropriate doses and injection volumes ranged from 100-400 μL per mouse. In the case of animals treated with two drugs, artemisinin derivatives were administered first (due to the short half life of cysteamine), followed by cysteamine 5-10 minutes later on alternate sides. Untreated control animals were injected with PBS alone.
# It was investigated if low dose Cys could potentiate standard doses of ART that show therapeutic activity in vivo and concurrently determined possible long-term effects on patent parasitemia, resolution of infection and survival in a lethal infection model. In this protocol, mice were infected with 10^6 pRBC P. chabaudi (i.v.) and treated with Cys (60 mg/kg) and/or ART (0.5, 1, 2, 5 and 10 mg/kg) for 4 days (days 0-3), while blood parasitemia and survival were followed for 22 days. Control animals treated with either PBS or Cys alone (60 mg/kg) developed high parasite burdens, which peaked at day 6, and all mice succumbed to the infection by day 7 (FIGS. 5A and 5C). […] Likewise, although all mice treated with 0.5 mg/kg ART succumbed to the infection early (day 8), mice additionally receiving Cys survived until day 9; moreover, addition of Cys to 1.0 mg/kg ART completely rescued animals from lethality of infection, with 100% survival in this group (FIGS. 5B, 5C).
compound,measurement,setting,value
NCCS [Cysteamine],AUC,"in vivo; ip, 120 mg/kg",405 µM·h
same,Cmax,"in vivo; ip, 120 mg/kg",665 µM
same,Tmax,"in vivo; ip, 120 mg/kg",< 5 min
same,AUC,"in vivo; sc, 50 mg/kg",47.4 µM·h
same,Cmax,"in vivo; sc, 50 mg/kg",~80 µM
same,AUC,"in vivo; sc, 120 mg/kg",255 µM·h
same,Cmax,"in vivo; sc, 120 mg/kg",250 µM
same,Tmax,"in vivo; sc, 120 mg/kg",30 min
same,reduction in parasitemia relative to saline injected controls,"Plasmodium chabaudi [1]; 120 mg/kg Cys daily, either s.c. or i.p., day 5 and 6, p<0.01",50%
same,reduction of blood parasitemia,"Plasmodium chabaudi [1]; Cys s.c. daily, all regimens: 1×150 mg/kg, 3×50 or 4×50 mg/kg at 2 hr, 3×50 mg/kg at 1 hr intervals (strongest), days 5, 6, 7",40-67%
same,day at which parasite burdens peaked,Plasmodium chabaudi [2],6 days
same,day by which all mice succumbed to the infection,Plasmodium chabaudi [2],≤ 7 days
